The record followed here is patent US9145391B2, “Bipyridylaminopyridines as Syk inhibitors” (Merck Sharp & Dohme Corp., priority 2011, dated 2015).

For this experiment, the target named is recombinant human GST-Syk (Homo sapiens (Human), UniProt P43405). Nature of the experiment: Homogeneous Time-Resolved Fluorescence (HTRF) assay for the recombinant human Syk enzyme. It is filed as biochemical. The settings on record: recombinant human GST-Syk 5 pM, ATP 25 μM, read-out: rhSyk IC50. Summed up: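 Recombinant GST-hSyk fusion protein kinase activity was read by HTRF. Reactions were started with biotinylated substrate peptide at 250 nM final, Mg 5 mM final and ATP 25 μM final. Potency derived from inhibition of substrate phosphorylation.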
A general note: TR-FRET usually uses a lanthanide donor and a delayed reading to cut background.

pIC50: −log10 of the molar value.

Regarding `Cc1cc(Nc2cc(C(F)(F)F)ccn2)nc(-c2ccc(NC3CCN(C(=O)Cc4cccc(O)c4)CC3)nc2)c1` [Example 4-83], the negative logarithm of the IC50 (pIC50) (as a rule, the negative decadic logarithm of the IC50, by convention in mol/L) is 8.52.

With `Cc1cc(Nc2cc(C(F)(F)F)ccn2)nc(-c2ccc(NC3CCN(C(=O)c4ccncc4)CC3)nc2)c1` [Example 4-84], the pIC50 was 8.40.

As for `Cc1cc(Nc2cc(C(F)(F)F)ccn2)nc(-c2ccc(NC3CCN(C(=O)c4cccc(C#N)c4)CC3)nc2)c1` [Example 4-85], the pIC50 is 8.15.

As for `Cc1cc(Nc2cc(C(F)(F)F)ccn2)nc(-c2ccc(NC3CCN(C(=O)c4n[nH]c5ccccc45)CC3)nc2)c1` [Example 4-86], the pIC50 is 8.15.

For the compound `COc1ccccc1C(=O)N1CCC(Nc2ccc(-c3cc(C)cc(Nc4cc(C(F)(F)F)ccn4)n3)cn2)CC1` [Example 4-87], the pIC50 was 8.22.

Turning to `Cc1cc(Nc2cc(C(F)(F)F)ccn2)nc(-c2ccc(NC3CCN(C(=O)Cc4c(C)[nH]c5ccccc45)CC3)nc2)c1` [Example 4-88], the pIC50 is 7.96.

For `Cc1cc(Nc2cc(C(F)(F)F)ccn2)nc(-c2ccc(NC3CCN(C(=O)CCCN4CCCC4=O)CC3)nc2)c1` [Example 4-89], the pIC50 was 9.00.

For `Cc1cc(Nc2cc(C(F)(F)F)ccn2)nc(-c2ccc(NC3CCN(C(=O)c4ccc(C#N)cc4)CC3)nc2)c1` [Example 4-90], the pIC50 is 8.40.

Regarding `Cc1cc(Nc2cc(C(F)(F)F)ccn2)nc(-c2ccc(NC3CCN(C(=O)Cc4ccc(C#N)cc4)CC3)nc2)c1` [Example 4-91], the pIC50 is 8.40.

`Cc1cc(Nc2cc(C(F)(F)F)ccn2)nc(-c2ccc(NC3CCN(C(=O)c4cnc5ccccc5c4)CC3)nc2)c1` [Example 4-92]: the pIC50 is 8.40.

`COc1ccc(C(=O)N2CCC(Nc3ccc(-c4cc(C)cc(Nc5cc(C(F)(F)F)ccn5)n4)cn3)CC2)cc1` [Example 4-93]: the pIC50 was 8.30.

`Cc1cc(Nc2cc(C(F)(F)F)ccn2)nc(-c2ccc(NC3CCN(C(=O)c4cccnc4)CC3)nc2)c1` [Example 4-94]: the pIC50 is 8.70.

For the compound `Cc1cc(Nc2cc(C(F)(F)F)ccn2)nc(-c2ccc(NC3CCN(C(=O)Cc4ccccc4Cl)CC3)nc2)c1` [Example 4-95], the negative-log IC50 (pIC50) is 7.92.

As to `Cc1cc(Nc2cc(C(F)(F)F)ccn2)nc(-c2ccc(NC3CCN(C(=O)Cc4cccc(C(F)(F)F)c4)CC3)nc2)c1` [Example 4-96], the pIC50 was 6.99.

On to `Cc1cc(Nc2cc(C(F)(F)F)ccn2)nc(-c2ccc(NC3CCN(C(=O)c4ccc5nc(C)c(C)nc5c4)CC3)nc2)c1` [Example 4-97], for which the negative-log IC50 (pIC50) is 8.70.

Consider `Cc1cc(Nc2cc(C(F)(F)F)ccn2)nc(-c2ccc(NC3CCN(C(=O)c4ccc5[nH]ncc5c4)CC3)nc2)c1` [Example 4-98], for which the pIC50 is 8.30.

As to `Cc1cc(Nc2cc(C(F)(F)F)ccn2)nc(-c2ccc(NC3CCN(C(=O)c4cn(C)c5ccccc45)CC3)nc2)c1` [Example 4-99], the pIC50 is 7.96.

With `Cc1cc(Nc2cc(C(F)(F)F)ccn2)nc(-c2ccc(NC3CCN(C(=O)Cc4ccc(O)c(Cl)c4)CC3)nc2)c1` [Example 4-100], the negative logarithm of the IC50 (pIC50) is 8.05.

On to `Cc1cc(Nc2cc(C(F)(F)F)ccn2)nc(-c2ccc(NC3CCN(C(=O)c4cccc(O)c4)CC3)nc2)c1` [Example 4-101], for which the pIC50 was 8.10.

For the compound `Cc1cc(Nc2cc(C(F)(F)F)ccn2)nc(-c2ccc(NC3CCN(C(=O)Cc4cn(C)c5ccccc45)CC3)nc2)c1` [Example 4-102], the pIC50 is 8.15.

On to `Cc1cc(Nc2cc(C(F)(F)F)ccn2)nc(-c2ccc(NC3CCN(C(=O)c4ccc5[nH]c(C)c(C)c5c4)CC3)nc2)c1` [Example 4-103], for which the negative-log IC50 (pIC50) was 7.96.

Regarding `Cc1cc(Nc2cc(C(F)(F)F)ccn2)nc(-c2ccc(NC3CCN(C(=O)c4ccccn4)CC3)nc2)c1` [Example 4-104], the pIC50 is 8.70.

For the compound `Cc1cc(Nc2cc(C(F)(F)F)ccn2)nc(-c2ccc(NC3CCN(C(=O)c4cccc(Cl)c4)CC3)nc2)c1` [Example 4-105], the pIC50 is 6.61.

As for `Cc1cc(Nc2cc(C(F)(F)F)ccn2)nc(-c2ccc(NC3CCN(C(=O)c4ccc(O)cc4)CC3)nc2)c1` [Example 4-106], the pIC50 is 8.22.

Consider `Cc1cc(Nc2cc(C(F)(F)F)ccn2)nc(-c2ccc(NC3CCN(C(=O)Cc4cccc(Cl)c4)CC3)nc2)c1` [Example 4-107], for which the negative-log IC50 (pIC50) is 7.89.

For the compound `Cc1cc(Nc2cc(C(F)(F)F)ccn2)nc(-c2ccc(NC3CCN(C(=O)Cc4ccc(O)cc4)CC3)nc2)c1` [Example 4-108], the pIC50 was 8.52.

As to `COc1cccc(C(=O)N2CCC(Nc3ccc(-c4cc(C)cc(Nc5cc(C(F)(F)F)ccn5)n4)cn3)CC2)c1` [Example 4-109], the pIC50 was 8.22.

On to `COc1cccc(CC(=O)N2CCC(Nc3ccc(-c4cc(C)cc(Nc5cc(C(F)(F)F)ccn5)n4)cn3)CC2)c1` [Example 4-110], for which the pIC50 is 8.22.

With `Cc1cc(Nc2cc(C(F)(F)F)ccn2)nc(-c2ccc(NC3CCN(C(=O)c4ccc5ncccc5c4)CC3)nc2)c1` [Example 4-111], the pIC50 was 8.52.

With `Cc1cc(Nc2cc(C(F)(F)F)ccn2)nc(-c2ccc(NC3CCN(C(=O)c4ccccc4C#N)CC3)nc2)c1` [Example 4-112], the pIC50 was 8.22.

Turning to `Cc1cc(Nc2cc(C(F)(F)F)ccn2)nc(-c2ccc(NC3CCN(C(=O)c4cc5ccccc5n4C)CC3)nc2)c1` [Example 4-113], the negative-log IC50 (pIC50) was 7.59.

For the compound `Cc1cc(Nc2cc(C(F)(F)F)ccn2)nc(-c2ccc(NC3CCN(C(=O)c4ccc(Oc5ccccc5)cc4)CC3)nc2)c1` [Example 4-114], the pIC50 was 7.64.

As for `Cc1cc(Nc2cc(C(F)(F)F)ccn2)nc(-c2ccc(NC3CCN(C(=O)c4ccc(F)c(O)c4)CC3)nc2)c1` [Example 4-115], the pIC50 was 8.40.

Take `Cc1cc(Nc2cc(C(F)(F)F)ccn2)nc(-c2ccc(NC3CCN(C(=O)Cc4ccc(O)c(F)c4)CC3)nc2)c1` [Example 4-116]: the negative logarithm of the IC50 (pIC50) was 8.40.

On to `Cc1cc(Nc2cc(C(F)(F)F)ccn2)nc(-c2ccc(NC3CCN(C(=O)c4cccc5c4-c4ccccc4C5)CC3)nc2)c1` [Example 4-117], for which the negative logarithm of the IC50 (pIC50) is 6.85.

Take `Cc1cc(Nc2cc(C(F)(F)F)ccn2)nc(-c2ccc(NC3CCN(C(=O)c4cc5ccccc5n4-c4ccccc4)CC3)nc2)c1` [Example 4-118]: the negative logarithm of the IC50 (pIC50) was 6.75.

Consider `Cc1cc(Nc2cc(C(F)(F)F)ccn2)nc(-c2ccc(NC3CCN(C(=O)c4cccc5c6c([nH]c45)CCCC6)CC3)nc2)c1` [Example 4-119], for which the pIC50 is 7.72.

Regarding `Cc1cc(Nc2cc(C(F)(F)F)ccn2)nc(-c2ccc(NC3CCN(C(=O)c4cccc5[nH]ncc45)CC3)nc2)c1` [Example 4-120], the pIC50 is 8.05.

In the case of `Cc1cc(Nc2cc(C(F)(F)F)ccn2)nc(-c2ccc(NC3CCN(C(=O)CCc4nc5ccccc5s4)CC3)nc2)c1` [Example 4-121], the negative logarithm of the IC50 (pIC50) was 8.30.

For `Cc1cc(Nc2cc(C(F)(F)F)ccn2)nc(-c2ccc(NC3CCN(C(=O)c4cccc(-c5ccccc5)c4)CC3)nc2)c1` [Example 4-122], the pIC50 is 8.52.

On to `Cc1cc(Nc2cc(C(F)(F)F)ccn2)nc(-c2ccc(N3CC[C@H](N)C3)nc2)c1` [Example 5, 6′-[(3S)-3-aminopyrrolidin-1-yl]-4-methyl-N-[4-(trifluoromethyl)pyridin-2-yl]-2,3′-bipyridin-6-amine], for which the negative-log IC50 (pIC50) was 9.00.

With `Cc1cc(Nc2cc(C(F)(F)F)ccn2)nc(-c2ccc(N3CCCC(N)C3)nc2)c1` (stereo not drawn) [Example 5-1], the negative-log IC50 (pIC50) was 8.70.
